In patent US20200338028A1, “BENZENESULFONAMIDE DERIVATIVES AND METHOD FOR MODULATING LIPID RAFT” (Gongwin Biopharm Co., Ltd., priority 2017, published 2020):

What was measured:
Type in all cases: cell-based, human
DU-145 cells [1] = experiment: propidium iodide staining, cell cycle distribution by flow cytometry; settings: DU-145, 24 h, FIG. 2A
Method: (§1) Flow cytometric analysis was performed as follows. Cells were harvested by trypsinization, fixed with 70% (v/v) alcohol at 4° C. for 30 min and washed with PBS. After centrifugation, the cells were incubated in phosphate-citric acid buffer (0.2 mol/l NaHPO4, 0.1 mol/l citric acid, pH 7.8) for 30 min at room temperature. The cells were then centrifuged and resuspended with 0.5 ml propidium iodide (PI) solution containing Triton X-100 (0.1% v/v), RNase (100 μg/ml) and PI (80 μg/ml). DNA content was analyzed with the FACScan and CellQuest software (Becton Dickinson, Mountain View, Calif., United States).

PC-3 cells [2] = experiment: as above; settings: PC-3, 24 h, FIG. 2A
Method: as §1

DU-145 cells [3] = experiment: JC-1 staining, mitochondrial membrane potential; settings: DU-145, 24 h, JC-1, FIG. 2B
Method: (§2) Mitochondria generate the majority of ATP to synthesize bioactive components such as proteins, lipids and nucleotides for cell growth and proliferation. The stress onto mitochondria and interference with ATP production have shown to induce cell cycle arrest. Measurement of mitochondrial membrane potential (ΔΨm) was performed as follows. JC-1, a mitochondrial dye staining mitochondria in living cells in a membrane potential-dependent fashion, was used to determine the mitochondrial membrane potential (ΔΨm). PC-3 and DU145 cells were treated with or without p-TSA. Thirty minutes before the termination of incubation, the cells were incubated with JC-1 (final concentration of 5 μM) at 37° C. for 30 min. The cells were finally harvested, and the accumulation of JC-1 was determined using flow cytometric analysis. […] An increase in the permeability of the outer mitochondrial membrane that leads to the release of apoptogenic factors is the key to cell apoptosis. Mitochondrial membrane permeability is directly controlled by Bcl-2 family of proteins.

PC-3 cells [4] = experiment: JC-1 staining, mitochondrial membrane potential; settings: PC-3, 24 h, JC-1, FIG. 2B
Method: as §2

DU-145 cells [5] = experiment: Western blot of Bcl-2 family members, cell cycle regulators and Akt/mTOR/p70S6K pathway signals
Method: (§3) In addition, protein expression assay of each Mcl-1, Bcl-2, Bid, PUMA and Bak was performed by western blotting with methods described as follows. After treatment of PC-3 and DU145 cells with p-TSA, the cells were harvested with trypsinization, centrifuged and lysed in 0.1 ml of lysis buffer containing 10 mM Tris-HCl (pH 7.4), 150 mM NaCl, 1 mM EGTA, 1% Triton X-100, 1 mM PMSF, 10 μg/ml leupeptin, 10 μg/ml aprotinin, 50 mM NaF and 100 μM sodium orthovanadate. Total protein was quantified, mixed with the sample buffer and boiled at 90° C. for 5 min. Equal amount of protein (30 μg) was separated by electrophoresis in 8% or 12% SDS-PAGE, transferred to PVDF membranes and detected with specific antibodies (1:1000 dilution) for each of Mcl-1, Bcl-2, Bid, PUMA and Bak proteins. The immunoreactive proteins after incubation with appropriately labeled secondary antibody (1:3000 dilution) were detected with an enhanced chemiluminescence detection kit (Amersham, Buckinghamshire, United Kingdom). […] These effects were correlated with the mitochondrial stress.
(§4) During G1 phase, cells grow in size and synthesize mRNA and proteins which are necessary to DNA synthesis. The serine/threonine kinases mTOR and p70S6K that regulate protein synthesis (mRNA translation) through affecting the phosphorylation or activities of several downstream translation factors are critical regulators in G1 phase. Protein expression assay of each Akt, mTOR 4E-BP1 and p70S6K was performed by Western blotting.

PC-3 cells [6] = experiment: as above
Method: as §3, §4

DU-145 cells [7] = experiment: lipid raft isolation (sucrose gradient) and Western blot of raft-associated kinases; settings: DU-145, 6 mM p-TSA, 2 h
Text: (§5) Lipid rafts are plasma membranes of cells containing glycosphingolipids and a number of receptors arranged in specific glycolipoprotein microdomains which serve as organizing centers to gather signaling molecules, membrane fluid and protein trafficking for a variety of cellular processes. […] To examine the effect of lipid raft on p-TSA action, lipid rafts were isolated from whole cells by sucrose gradient fractionation with subsequent analysis of several serine/threonine kinases localization in raft fractions by immunoblotting. The detailed method for lipid raft isolation was performed as follows. Lipid rafts were isolated using lysis conditions and centrifugation on discontinuous sucrose gradients. Briefly, after the treatment of cells with or without p-TSA, the cells were washed with ice-cold PBS and lysed for 30 min on ice with 1% Triton X-100 in TNEV buffer (10 mM Tris-HCl, pH 7.5, 150 mM NaCl, 5 mM EDTA, 1 mM Na3VO4 and 1 mM PMSF). Cells were homogenized with 15 strokes with a Biovision tissue homogenizer. After centrifuging at 200 g for 8 min, the nuclei and cellular debris were pelleted and 400 μl supernatant was mixed with 400 μl 85% (w/v) sucrose in TNEV buffer, and then transferred to the bottom of a Beckman 13×51 mm centrifuge tube. The diluted lysate was overlaid with 2.4 ml 35% (w/v) sucrose in TNEV buffer and finally 1.4 ml 5% (w/v) sucrose in TNEV buffer. The samples were centrifuged in an SW55 rotor at 200,000 g for 18 h at 4° C. in a Beckman Optima L100K ultracentrifuge (Beckman Instruments, Palo Alto, Calif., United States). Then, fractions in each volume of 350 μl were collected from the top gradient. 15 μl of each fraction was subjected to Western blot analysis to determine the location of target proteins in the discontinuous sucrose gradient.

PC-3 cells [8] = experiment: as above; settings: PC-3, 6 mM p-TSA, 2 h
Text: as §5

`Cc1ccc(S(N)(=O)=O)cc1` [p-TSA, para-toluenesulfonamide] was tested, and the cell apoptosis (DU-145 cells [1]) was “accelerated cell apoptosis”, the “distribution of cell populations in cell cycle phases” value (DU-145 cells [1]) was “accumulation of both PC-3 cells and DU-145 cells in G1 phase” and the cell apoptosis (PC-3 cells [2]) was “accelerated cell apoptosis”. For the same compound, the “distribution of cell populations in cell cycle phases” value (PC-3 cells [2]) was “accumulation of both PC-3 cells and DU-145 cells in G1 phase”, the mitochondrial membrane potential (DU-145 cells [3]) was “concentration-dependent decrease” and the mitochondrial membrane potential (PC-3 cells [4]) was “concentration-dependent decrease”. For the same compound, the “phosphorylation of Akt” value (DU-145 cells [5]; DU-145, 6 mM p-TSA) was “not modified”, the “p21 and p27 expression” value (DU-145 cells [5]; DU-145, 6 mM p-TSA, FIG. 3A) was “neither p21 nor p27 expression was modified” and the “phosphorylation of mTOR, 4E-BP1 and p70S6K” value (DU-145 cells [5]; DU-145, 6 mM p-TSA, FIGS. 3B and 3C) was “inhibitory effect”. The “expressions of PUMA and Bak” value (DU-145 cells [5]; DU-145, 24 h, Western blot) was “increase”, the “protein expression of Mcl-1” value (DU-145 cells [5]; DU-145, 24 h, Western blot, FIG. 2D) was “significantly decreased” and the “cyclin D1 protein expression” value (DU-145 cells [5]; Rb-mutant DU-145, 6 mM p-TSA, FIG. 3A) was “decrease”. The “phosphorylation of Akt” value (PC-3 cells [6]; PC-3, 6 mM p-TSA) was “inhibited”, the Rb phosphorylation (PC-3 cells [6]; PC-3, 6 mM p-TSA, FIG. 3A) was “decrease” and the “cyclin D1 protein expression” value (PC-3 cells [6]; PC-3, 6 mM p-TSA, FIG. 3A) was “decrease”. The “p21 and p27 expression” value (PC-3 cells [6]; PC-3, 6 mM p-TSA, FIG. 3A) was “neither p21 nor p27 expression was modified”, the “phosphorylation of mTOR, 4E-BP1 and p70S6K” value (PC-3 cells [6]; PC-3, 6 mM p-TSA, FIGS. 3B and 3C) was “inhibitory effect” and the “expressions of PUMA and Bak” value (PC-3 cells [6]; PC-3, 24 h, Western blot) was “increase”. The “expressions of raft-associated total and phosphorylated kinases (Akt, mTOR, p70S6K)” value (DU-145 cells [7]) was “decreased expressions”, the “raft-associated phosphorylated p70S6K expression” value (DU-145 cells [7]) was “completely abolished” and the “expressions of raft-associated total and phosphorylated kinases (Akt, mTOR, p70S6K)” value (PC-3 cells [8]) was “decreased expressions”. For the same compound, the “raft-associated phosphorylated p70S6K expression” value (PC-3 cells [8]) was “completely abolished”.
